The values below come from EP3843702B1, “IMMEDIATE RELEASE FIXED-DOSE COMBINATION OF MEMANTINE AND DONEPEZIL” (Tecnimede, Sociedade Técnico-Medicinal, SA, priority 2019, dated 2020).

For this data set the following is noted: in vivo.

For `CC12CC3CC(C)(C1)CC(N)(C3)C2` [Memantine 20mg, 3,5-dimethyladamantan-1-amine], the “AUC 0→72 Point Estimate [%]” value is 103.89% and the “Cmax Point Estimate [%]” value is 101.40%.
